Source: ChEMBL document CHEMBL5370608, “Selective and Bioavailable HDAC6 2-(Difluoromethyl)-1,3,4-oxadiazole Substrate Inhibitors and Modeling of Their Bioactivation Mechanism” (J Med Chem, 2023)
Values after ≈ are worked out from the molar mass of the structure shown. Active and inactive are the calls of the source. The rule behind the calls is not given here.

Tests used:
[1] = target: T1, Protein deacetylase HDAC6 (Homo sapiens, UniProt Q9UBN7); assay: Inhibition of HDAC6 in human BEAS-2B cells assessed as deacetylation of acetylated histone-3 level incubated for 24 hrs by Western blot analysis; assay type: cell-based
T1 sequence (Q9UBN7 whole entry): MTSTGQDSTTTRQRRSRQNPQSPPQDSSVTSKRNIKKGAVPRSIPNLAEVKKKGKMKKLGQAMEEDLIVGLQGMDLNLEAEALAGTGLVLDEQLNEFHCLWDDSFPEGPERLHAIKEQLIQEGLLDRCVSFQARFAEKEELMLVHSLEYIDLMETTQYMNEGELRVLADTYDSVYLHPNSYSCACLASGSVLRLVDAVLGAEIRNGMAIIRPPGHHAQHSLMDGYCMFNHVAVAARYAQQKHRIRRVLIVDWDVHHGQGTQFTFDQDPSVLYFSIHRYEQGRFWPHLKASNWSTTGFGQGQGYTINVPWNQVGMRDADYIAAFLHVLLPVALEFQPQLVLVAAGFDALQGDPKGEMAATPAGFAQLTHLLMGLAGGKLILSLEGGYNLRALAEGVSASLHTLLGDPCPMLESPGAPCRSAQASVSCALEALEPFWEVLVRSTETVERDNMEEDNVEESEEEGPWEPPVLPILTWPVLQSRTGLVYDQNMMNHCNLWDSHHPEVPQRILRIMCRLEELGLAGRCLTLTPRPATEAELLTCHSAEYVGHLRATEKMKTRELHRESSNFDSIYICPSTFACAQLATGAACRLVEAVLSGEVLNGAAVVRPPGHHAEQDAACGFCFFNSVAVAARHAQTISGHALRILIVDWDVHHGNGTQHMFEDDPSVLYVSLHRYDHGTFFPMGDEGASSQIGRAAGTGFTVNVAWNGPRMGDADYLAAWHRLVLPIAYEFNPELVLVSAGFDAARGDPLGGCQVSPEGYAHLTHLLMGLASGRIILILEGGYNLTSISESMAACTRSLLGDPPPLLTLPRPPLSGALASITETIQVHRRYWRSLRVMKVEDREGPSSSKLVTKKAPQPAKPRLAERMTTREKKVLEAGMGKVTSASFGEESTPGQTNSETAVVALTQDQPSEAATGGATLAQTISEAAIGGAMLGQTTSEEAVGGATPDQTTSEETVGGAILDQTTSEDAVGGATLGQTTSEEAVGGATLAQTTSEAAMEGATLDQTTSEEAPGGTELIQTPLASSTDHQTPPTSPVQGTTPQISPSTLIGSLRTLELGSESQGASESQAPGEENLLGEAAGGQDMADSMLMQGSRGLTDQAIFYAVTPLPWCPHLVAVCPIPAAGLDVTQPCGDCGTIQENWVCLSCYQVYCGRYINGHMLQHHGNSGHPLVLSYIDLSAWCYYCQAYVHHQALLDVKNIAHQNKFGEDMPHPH

[2] = Metabolic stability in human liver microsomes assessed as disappearance of parent compound; assay type: ADME, Microsome; settings: read-out: CLH
[3] = target: T1, Protein deacetylase HDAC6; assay: Inhibition of full length TEV-cleavable N-terminal His6-tagged human recombinant HDAC6 using Ac-RGK (Ac)-AMC as substrate preincubated for 20 hrs followed by substrate addition and measured after 3 hrs by microplate reader analysis
[4] = target: T1, Protein deacetylase HDAC6; assay: Inhibition of HDAC6 in human BEAS-2B cells assessed as deacetylation of acetylated alpha-tubulin level incubated for 24 hrs by Western blot analysis; assay type: cell-based
[5] = Aqueous solubility of the compound at pH 7.4; assay type: physicochemical
THP-1 [6] = assay: Cytotoxicity against human THP-1 cells assessed as reduction in cell viability by alamar blue staining based assay; assay type: functional
[7] = target: T1, Protein deacetylase HDAC6; assay: Stability of the compound assessed as full-length human HDAC6 mediated-drug degradation measured after 96 hrs by time-resolved mass spectrometry analysis; assay type: ADME
THP-1 [8] = assay: Cytotoxicity against human THP-1 cells assessed as reduction in cell viability measured upto 250 uM by alamar blue staining based assay; assay type: functional
[9] = target: T2, Protein deacetylase HDAC6 (Homo sapiens) (UniProt Q9UBN7); assay: Inhibition of HDAC6 in human BEAS-2B cells assessed as deacetylation of acetylated alpha-tubulin level at 10 uM incubated for 24 hrs by Western blot analysis; assay type: cell-based
T2 sequence (whole entry): T1 sequence (Q9UBN7 whole entry)

[10] = Chemical stability of compound in HCL solution at pH 1 assessed as half life by UPLC analysis; assay type: physicochemical
[11] = Chemical stability of compound in sodium carbonate buffer at pH 10 assessed as half life by UPLC analysis; assay type: physicochemical
[12] = Chemical stability of compound in sodium phosphate buffer at pH 7.4 assessed as half life by UPLC analysis; assay type: physicochemical

| IC50 [1] | microsomal CLint [2] | IC50 [3] | EC50 [4] | solubility [5] | Stability [7] | inhibition [9] | half-life [10] | half-life [11] | half-life [12] | IC50 [4] | SMILES | IC50 (THP-1 [6]; read-out: IC50) | IC50 (THP-1 [6]; read-out: pIC50 (converted)) | Activity (THP-1 [8]) |
| --- | --- | --- | --- | --- | --- | --- | --- | --- | --- | --- | --- | --- | --- | --- |
| > 10000 nM | < 3 µL/min/mg | 1.26 nM | 1000 nM | 170 µM (≈ 60.6 µg/mL) | – | – | – | – | – | – | FC(F)c1nnc(-c2ccc(Cn3nnc(-c4cccnc4)n3)nc2)o1 | – | – | – |
| > 10000 nM | 12 µL/min/mg | 3.98 nM | 631 nM | 2.6 µM (≈ 1.06 µg/mL) | Unstable | – | – | – | – | – | FC(F)c1nnc(-c2cnc(NC3(c4ccccc4)CCC(F)(F)CC3)nc2)o1 | 130000 nM | 158000 nM | – |
| > 10000 nM | < 3 µL/min/mg | 0.631 nM | 398 nM | 5.8 µM (≈ 2.26 µg/mL) | – | – | – | – | – | – | FC(F)c1nnc(-c2ccc(Cn3nnc(-c4ccccc4Cl)n3)nc2)o1 | – | > 251000 nM | inactive |
| – | – | 12.6 nM | – | – | – | inactive | – | – | – | – | COc1cccc(CNC(=O)c2csc(-c3nnn(Cc4ccc(-c5nnc(C(F)(F)F)o5)cc4)n3)c2)c1 | – | – | – |
| > 10000 nM | < 3 µL/min/mg | 1.58 nM | 631 nM | 3.1 µM (≈ 1.21 µg/mL) | – | – | – | – | – | – | FC(F)c1nnc(-c2ccc(Cn3nnc(-c4cccc(Cl)c4)n3)nc2)o1 | – | – | – |
| > 10000 nM | < 3 µL/min/mg | 6.31 nM | 3160 nM | 52 µM (≈ 20.3 µg/mL) | – | – | < 13.7 h | < 13.7 h | 57.6 h | – | Fc1cc(-c2nnc(C(F)F)o2)cc(F)c1Cn1nnc(-c2ccccn2)n1 | – | > 251000 nM | inactive |
| – | 160 µL/min/mg | 1.58 nM | – | < 1.6 µM | – | – | – | – | – | 10 nM | COc1cccc(CNC(=O)c2csc(-c3nnn(Cc4ccc(-c5nnc(C(F)F)o5)cc4)n3)c2)c1 | – | – | – |
| – | – | > 100000 nM | – | – | – | – | – | – | – | – | COc1cccc(CNC(=O)c2csc(-c3nnn(Cc4ccc(-c5nnc(C)o5)cc4)n3)c2)c1 | – | – | – |
| > 10000 nM | < 3 µL/min/mg | 2 nM | 3160 nM | 14 µM (≈ 4.97 µg/mL) | – | – | 7.44 h | < 13.7 h | 240 h | – | FC(F)c1nnc(-c2ccc(Cn3nnc(-c4ccccn4)n3)cc2)o1 | – | > 251000 nM | inactive |
| > 10000 nM | < 3 µL/min/mg | 15.8 nM | 1580 nM | 120 µM (≈ 42.9 µg/mL) | Unstable | – | 7.2 h | < 13.7 h | 26.4 h | – | FC(F)c1nnc(-c2cnc(Cn3nnc(-c4ccccn4)n3)nc2)o1 | – | – | – |
| 5010 nM | < 3 µL/min/mg | < 0.316 nM | 20 nM | 710 µM (≈ 236 µg/mL) | Stable | – | 624 h | 504 h | 1730 h | – | O=C(NO)c1cc(F)c(Cn2nnc(-c3ccccn3)n2)c(F)c1 | 60000 nM | 63100 nM | – |
| > 10000 nM | 7.5 µL/min/mg | 1 nM | 501 nM | 2.3 µM (≈ 0.96 µg/mL) | – | – | – | – | – | – | CNC(=O)c1csc(-c2nnn(Cc3ccc(-c4nnc(C(F)F)o4)cc3)n2)c1 | – | > 251000 nM | inactive |
| – | < 3 µL/min/mg | > 10000 nM | – | 120 µM (≈ 42.8 µg/mL) | – | – | – | – | – | – | FC(F)c1nnc(-c2ccc(Cn3nnc(-c4ccccn4)n3)cn2)o1 | – | – | – |
| > 10000 nM | < 3 µL/min/mg | 0.794 nM | 316 nM | 2.9 µM (≈ 1.03 µg/mL) | – | – | – | – | – | – | FC(F)c1nnc(-c2ccc(Cn3nnc(-c4ccccc4)n3)nc2)o1 | – | > 251000 nM | inactive |
| > 10000 nM | < 3 µL/min/mg | 2 nM | 1260 nM | 1.3 µM (≈ 0.507 µg/mL) | – | – | – | – | – | – | FC(F)c1nnc(-c2ccc(Cn3nnc(-c4ccc(Cl)cc4)n3)nc2)o1 | – | – | – |
| – | – | – | – | – | – | – | – | – | – | 200 nM | COc1cccc(CNC(=O)c2csc(-c3nnn(Cc4ccc(C(=O)NO)cc4)n3)c2)c1 | – | – | – |
| > 10000 nM | 5.8 µL/min/mg | 31.6 nM | > 10000 nM | 2.6 µM (≈ 0.924 µg/mL) | – | – | – | – | – | – | FC(F)c1nnc(-c2ccc(Cn3nnnc3-c3ccccn3)cc2)o1 | – | > 251000 nM | inactive |
| > 10000 nM | 18 µL/min/mg | 2 nM | 316 nM | 2.9 µM (≈ 1.12 µg/mL) | – | – | – | – | – | – | COc1cccc(-c2nnn(Cc3ccc(-c4nnc(C(F)F)o4)cn3)n2)c1 | – | – | – |
